According to ChEMBL document CHEMBL5465560, “Selectivity Literature for EUbOPEN Chemogenomic Library” (2024):

How the values were obtained:
[1] = target: Mitogen-activated protein kinase 9 (Homo sapiens, UniProt P45984); assay: Selectivity interaction (KinomeScan (DiscoverX)) EUB0001079a MAPK9; details: at 1 µM
[2] = tested on: T1, Receptor-type tyrosine-protein kinase FLT3 (Homo sapiens), P36888 [D835H]; details: at 10 µM
T1 sequence (whole entry): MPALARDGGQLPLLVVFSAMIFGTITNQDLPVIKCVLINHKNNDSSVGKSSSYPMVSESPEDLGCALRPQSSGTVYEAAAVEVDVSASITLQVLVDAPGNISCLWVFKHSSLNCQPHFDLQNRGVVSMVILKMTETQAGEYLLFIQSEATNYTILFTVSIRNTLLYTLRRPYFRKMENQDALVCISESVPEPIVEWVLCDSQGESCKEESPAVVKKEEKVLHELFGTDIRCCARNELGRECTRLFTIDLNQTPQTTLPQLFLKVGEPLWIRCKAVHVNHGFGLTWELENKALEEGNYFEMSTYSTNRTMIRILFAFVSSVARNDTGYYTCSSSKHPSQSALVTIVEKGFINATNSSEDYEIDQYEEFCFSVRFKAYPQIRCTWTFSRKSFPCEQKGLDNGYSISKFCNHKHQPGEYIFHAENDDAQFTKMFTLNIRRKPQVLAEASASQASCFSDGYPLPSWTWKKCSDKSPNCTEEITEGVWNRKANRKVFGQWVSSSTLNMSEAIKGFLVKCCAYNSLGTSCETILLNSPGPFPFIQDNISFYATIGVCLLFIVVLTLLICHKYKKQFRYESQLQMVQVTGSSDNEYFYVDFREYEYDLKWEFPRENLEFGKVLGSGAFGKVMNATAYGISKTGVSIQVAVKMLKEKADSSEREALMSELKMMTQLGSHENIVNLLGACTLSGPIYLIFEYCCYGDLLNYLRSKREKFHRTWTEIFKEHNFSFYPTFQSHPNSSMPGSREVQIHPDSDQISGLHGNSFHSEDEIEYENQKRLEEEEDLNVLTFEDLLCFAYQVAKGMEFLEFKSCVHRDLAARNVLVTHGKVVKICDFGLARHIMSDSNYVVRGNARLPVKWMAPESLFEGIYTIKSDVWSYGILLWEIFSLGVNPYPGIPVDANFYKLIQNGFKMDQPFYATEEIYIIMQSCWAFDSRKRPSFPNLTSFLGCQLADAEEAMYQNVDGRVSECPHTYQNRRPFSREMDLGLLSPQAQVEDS

[3] = target: Serine/threonine-protein kinase 25 (Homo sapiens) (UniProt O00506); assay: Selectivity interaction (ActivX KiNativ screen (kinase selectivity in THP-1 cell lysates)) EUB0000639a STK25; type: subcellular; details: lysate
Serine/threonine-protein kinase 25 (Homo sapiens), sequence (O00506 whole entry, looked up): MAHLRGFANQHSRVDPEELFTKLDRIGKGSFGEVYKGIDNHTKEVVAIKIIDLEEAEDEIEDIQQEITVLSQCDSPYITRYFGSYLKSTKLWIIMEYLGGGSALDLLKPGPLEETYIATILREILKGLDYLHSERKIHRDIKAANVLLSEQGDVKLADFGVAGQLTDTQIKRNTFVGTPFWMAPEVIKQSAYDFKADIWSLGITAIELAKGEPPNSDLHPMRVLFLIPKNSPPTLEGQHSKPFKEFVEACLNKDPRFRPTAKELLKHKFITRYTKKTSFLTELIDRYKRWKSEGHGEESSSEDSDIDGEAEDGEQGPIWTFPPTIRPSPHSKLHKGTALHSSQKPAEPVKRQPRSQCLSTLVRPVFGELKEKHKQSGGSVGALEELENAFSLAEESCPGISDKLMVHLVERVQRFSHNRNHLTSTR

[4] = target: Fibroblast growth factor receptor 4 (Homo sapiens, UniProt P22455); assay: Selectivity interaction (KinomeScan (DiscoverX)) EUB0000092b FGFR4; details: at 10 µM
[5] = target: Non-receptor tyrosine-protein kinase TYK2 (Homo sapiens, UniProt P29597); assay: Selectivity interaction (Ambit KINOMEscan and KiNATiv profiling in Jurkat cells) EUB0000090b TYK2; type: cell-based; details: at 1 µM
Non-receptor tyrosine-protein kinase TYK2, sequence (P29597 whole entry): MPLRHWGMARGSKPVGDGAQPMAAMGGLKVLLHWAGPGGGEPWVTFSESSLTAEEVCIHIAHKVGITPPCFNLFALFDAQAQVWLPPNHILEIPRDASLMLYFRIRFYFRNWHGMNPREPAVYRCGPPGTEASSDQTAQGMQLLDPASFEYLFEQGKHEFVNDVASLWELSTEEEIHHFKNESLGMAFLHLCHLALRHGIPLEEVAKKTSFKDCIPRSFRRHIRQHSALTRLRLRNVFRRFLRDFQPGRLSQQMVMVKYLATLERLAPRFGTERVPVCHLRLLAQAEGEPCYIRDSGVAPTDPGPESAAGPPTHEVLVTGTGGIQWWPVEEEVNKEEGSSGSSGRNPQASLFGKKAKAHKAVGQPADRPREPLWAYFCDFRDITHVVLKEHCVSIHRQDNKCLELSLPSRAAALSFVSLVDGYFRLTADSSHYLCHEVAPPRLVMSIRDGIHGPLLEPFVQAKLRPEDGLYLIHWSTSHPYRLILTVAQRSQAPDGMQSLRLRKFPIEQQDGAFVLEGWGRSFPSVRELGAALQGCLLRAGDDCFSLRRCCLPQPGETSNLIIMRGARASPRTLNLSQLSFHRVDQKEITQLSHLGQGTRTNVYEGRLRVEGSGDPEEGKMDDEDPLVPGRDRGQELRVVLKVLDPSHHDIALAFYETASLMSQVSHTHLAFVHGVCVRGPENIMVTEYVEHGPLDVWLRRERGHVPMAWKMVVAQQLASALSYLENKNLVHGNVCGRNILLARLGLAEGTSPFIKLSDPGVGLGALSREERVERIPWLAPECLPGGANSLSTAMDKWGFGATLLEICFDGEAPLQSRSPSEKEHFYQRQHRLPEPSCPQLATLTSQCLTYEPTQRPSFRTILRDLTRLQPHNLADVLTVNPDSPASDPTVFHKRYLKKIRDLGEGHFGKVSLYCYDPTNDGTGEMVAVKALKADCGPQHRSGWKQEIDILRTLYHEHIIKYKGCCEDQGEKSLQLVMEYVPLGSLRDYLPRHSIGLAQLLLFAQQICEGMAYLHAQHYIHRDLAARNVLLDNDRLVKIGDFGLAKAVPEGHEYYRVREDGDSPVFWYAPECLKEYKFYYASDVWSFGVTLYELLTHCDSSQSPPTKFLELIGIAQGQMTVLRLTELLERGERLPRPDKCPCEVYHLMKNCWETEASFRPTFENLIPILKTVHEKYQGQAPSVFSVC

[6] = tested on: eIF-2-alpha kinase GCN2 (Homo sapiens), Q9P2K8 [S808G]; assay: Selectivity interaction (KinomeScan (DiscoverX)) EUB0000618a EIF2AK4; details: at 10 µM
eIF-2-alpha kinase GCN2 (Homo sapiens), Q9P2K8 [S808G], sequence (Q9P2K8 whole entry S808G): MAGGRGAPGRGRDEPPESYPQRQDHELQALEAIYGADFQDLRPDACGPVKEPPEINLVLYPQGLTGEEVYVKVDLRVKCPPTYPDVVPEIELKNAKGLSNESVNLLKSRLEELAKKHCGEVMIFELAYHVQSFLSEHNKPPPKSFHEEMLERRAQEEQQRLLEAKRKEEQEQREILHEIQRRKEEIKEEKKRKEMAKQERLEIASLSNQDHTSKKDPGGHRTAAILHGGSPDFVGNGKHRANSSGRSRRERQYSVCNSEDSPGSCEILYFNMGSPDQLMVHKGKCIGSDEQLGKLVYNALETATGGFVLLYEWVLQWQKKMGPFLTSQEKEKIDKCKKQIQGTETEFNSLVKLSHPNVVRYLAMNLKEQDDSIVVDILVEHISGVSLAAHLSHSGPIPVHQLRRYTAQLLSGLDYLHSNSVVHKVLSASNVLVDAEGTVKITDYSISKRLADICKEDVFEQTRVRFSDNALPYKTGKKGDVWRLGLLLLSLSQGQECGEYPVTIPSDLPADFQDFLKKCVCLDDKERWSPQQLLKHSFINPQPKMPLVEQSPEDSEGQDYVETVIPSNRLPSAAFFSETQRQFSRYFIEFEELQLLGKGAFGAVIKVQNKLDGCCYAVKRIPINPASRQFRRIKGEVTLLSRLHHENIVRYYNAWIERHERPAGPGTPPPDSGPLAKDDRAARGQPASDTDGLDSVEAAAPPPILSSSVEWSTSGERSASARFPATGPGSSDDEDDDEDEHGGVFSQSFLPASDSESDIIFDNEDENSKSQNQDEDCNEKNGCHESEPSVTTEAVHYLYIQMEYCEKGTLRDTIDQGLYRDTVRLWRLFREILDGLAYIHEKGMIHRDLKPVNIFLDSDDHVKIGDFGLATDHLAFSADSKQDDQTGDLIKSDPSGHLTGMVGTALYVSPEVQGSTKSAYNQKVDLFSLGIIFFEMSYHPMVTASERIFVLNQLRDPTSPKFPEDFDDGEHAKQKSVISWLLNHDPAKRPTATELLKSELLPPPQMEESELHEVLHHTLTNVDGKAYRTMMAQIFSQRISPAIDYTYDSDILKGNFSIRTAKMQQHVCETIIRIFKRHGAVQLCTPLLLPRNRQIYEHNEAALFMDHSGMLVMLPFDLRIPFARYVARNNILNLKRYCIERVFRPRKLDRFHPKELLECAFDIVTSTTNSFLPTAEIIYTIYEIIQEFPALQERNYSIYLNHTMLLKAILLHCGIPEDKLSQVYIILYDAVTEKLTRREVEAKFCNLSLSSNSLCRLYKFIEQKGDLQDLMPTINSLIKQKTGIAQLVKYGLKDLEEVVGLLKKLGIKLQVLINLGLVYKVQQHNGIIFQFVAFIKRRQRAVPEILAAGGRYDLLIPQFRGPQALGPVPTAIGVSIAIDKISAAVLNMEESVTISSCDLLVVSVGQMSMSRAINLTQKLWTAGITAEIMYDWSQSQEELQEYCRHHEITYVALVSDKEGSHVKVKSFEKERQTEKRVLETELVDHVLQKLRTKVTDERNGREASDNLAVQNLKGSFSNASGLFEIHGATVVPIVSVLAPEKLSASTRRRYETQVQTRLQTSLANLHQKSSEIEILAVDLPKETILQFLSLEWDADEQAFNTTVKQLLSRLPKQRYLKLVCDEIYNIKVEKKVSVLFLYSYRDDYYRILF

[7] = target: T2, Activin receptor type-1 (Homo sapiens) (UniProt Q04771); details: at 10 µM
T2 sequence (whole entry): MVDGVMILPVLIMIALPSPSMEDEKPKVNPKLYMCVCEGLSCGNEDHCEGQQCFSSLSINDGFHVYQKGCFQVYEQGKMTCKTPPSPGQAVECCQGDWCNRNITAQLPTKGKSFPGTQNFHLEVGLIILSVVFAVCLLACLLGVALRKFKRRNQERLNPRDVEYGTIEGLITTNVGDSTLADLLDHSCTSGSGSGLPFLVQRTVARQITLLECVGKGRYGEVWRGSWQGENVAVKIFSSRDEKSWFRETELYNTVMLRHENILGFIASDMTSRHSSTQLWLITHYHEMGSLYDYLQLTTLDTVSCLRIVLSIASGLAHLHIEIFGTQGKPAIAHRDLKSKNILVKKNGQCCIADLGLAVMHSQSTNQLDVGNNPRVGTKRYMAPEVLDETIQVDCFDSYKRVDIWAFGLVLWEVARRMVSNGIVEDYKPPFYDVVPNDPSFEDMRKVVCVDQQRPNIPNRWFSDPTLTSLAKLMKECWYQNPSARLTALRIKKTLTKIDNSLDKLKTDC

[8] = target: BDNF/NT-3 growth factors receptor (Homo sapiens) (UniProt Q16620); assay: Selectivity interaction (KinomeScan (DiscoverX)) EUB0001619a NTRK2; details: at 1 µM
BDNF/NT-3 growth factors receptor (Homo sapiens), sequence (Q16620 32-822 limits assumed): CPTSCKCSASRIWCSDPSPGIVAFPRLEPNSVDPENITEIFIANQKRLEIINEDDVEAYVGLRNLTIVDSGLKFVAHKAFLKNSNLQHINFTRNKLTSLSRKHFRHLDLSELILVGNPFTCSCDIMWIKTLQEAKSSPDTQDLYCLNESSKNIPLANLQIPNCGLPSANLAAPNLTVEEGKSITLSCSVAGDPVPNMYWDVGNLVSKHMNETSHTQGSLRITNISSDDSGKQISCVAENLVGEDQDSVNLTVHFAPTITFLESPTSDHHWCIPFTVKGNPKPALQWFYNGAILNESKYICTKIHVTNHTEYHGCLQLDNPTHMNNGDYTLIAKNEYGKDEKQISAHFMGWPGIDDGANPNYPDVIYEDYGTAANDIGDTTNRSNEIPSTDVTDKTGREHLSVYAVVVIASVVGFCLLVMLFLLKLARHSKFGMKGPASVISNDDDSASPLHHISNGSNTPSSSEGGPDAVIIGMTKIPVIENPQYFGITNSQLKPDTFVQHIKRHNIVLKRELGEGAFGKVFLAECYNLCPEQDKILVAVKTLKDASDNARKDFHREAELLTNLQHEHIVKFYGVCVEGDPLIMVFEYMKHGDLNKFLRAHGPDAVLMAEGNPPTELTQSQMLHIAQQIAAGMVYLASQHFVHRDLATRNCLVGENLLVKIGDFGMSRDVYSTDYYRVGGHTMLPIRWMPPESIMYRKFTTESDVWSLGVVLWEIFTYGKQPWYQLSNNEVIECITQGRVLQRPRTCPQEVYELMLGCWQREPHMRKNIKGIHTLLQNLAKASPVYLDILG

[9] = target: T3, Serine/threonine-protein kinase tousled-like 1 (Homo sapiens) (UniProt Q9UKI8); assay: Selectivity interaction (ActivX KiNativ screen (ex vivo kinase selectivity in human PBMCs)) EUB0001619a TLK1; type: cell-based; details: PBMC, at 1 µM
T3 sequence (whole entry): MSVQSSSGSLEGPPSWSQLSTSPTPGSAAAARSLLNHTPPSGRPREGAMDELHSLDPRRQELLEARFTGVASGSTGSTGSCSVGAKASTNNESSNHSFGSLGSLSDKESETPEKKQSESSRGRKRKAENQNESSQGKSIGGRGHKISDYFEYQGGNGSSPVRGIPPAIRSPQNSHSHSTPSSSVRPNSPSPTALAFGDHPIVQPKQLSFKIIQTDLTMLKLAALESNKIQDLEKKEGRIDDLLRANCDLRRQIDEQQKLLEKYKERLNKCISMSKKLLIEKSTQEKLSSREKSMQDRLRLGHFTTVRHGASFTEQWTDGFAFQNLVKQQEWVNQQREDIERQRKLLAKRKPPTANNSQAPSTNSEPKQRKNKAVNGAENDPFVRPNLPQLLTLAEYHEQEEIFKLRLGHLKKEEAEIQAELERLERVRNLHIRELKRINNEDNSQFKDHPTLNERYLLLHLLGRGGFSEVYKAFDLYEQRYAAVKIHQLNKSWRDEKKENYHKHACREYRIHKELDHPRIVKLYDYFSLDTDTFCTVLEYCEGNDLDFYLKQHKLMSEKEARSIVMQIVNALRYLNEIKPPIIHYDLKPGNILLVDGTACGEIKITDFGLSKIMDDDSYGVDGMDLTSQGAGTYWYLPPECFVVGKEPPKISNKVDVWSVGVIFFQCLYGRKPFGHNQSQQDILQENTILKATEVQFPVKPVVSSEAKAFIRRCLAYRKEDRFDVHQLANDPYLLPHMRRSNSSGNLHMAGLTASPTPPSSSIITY

[10] = target: Serine/threonine-protein kinase MRCK gamma (Homo sapiens) (UniProt Q6DT37); assay: Selectivity interaction (KinomeScan (DiscoverX)) EUB0000607a CDC42BPG; details: at 10 µM

Mitogen-activated protein kinase 9, sequence (P45984 whole entry, looked up): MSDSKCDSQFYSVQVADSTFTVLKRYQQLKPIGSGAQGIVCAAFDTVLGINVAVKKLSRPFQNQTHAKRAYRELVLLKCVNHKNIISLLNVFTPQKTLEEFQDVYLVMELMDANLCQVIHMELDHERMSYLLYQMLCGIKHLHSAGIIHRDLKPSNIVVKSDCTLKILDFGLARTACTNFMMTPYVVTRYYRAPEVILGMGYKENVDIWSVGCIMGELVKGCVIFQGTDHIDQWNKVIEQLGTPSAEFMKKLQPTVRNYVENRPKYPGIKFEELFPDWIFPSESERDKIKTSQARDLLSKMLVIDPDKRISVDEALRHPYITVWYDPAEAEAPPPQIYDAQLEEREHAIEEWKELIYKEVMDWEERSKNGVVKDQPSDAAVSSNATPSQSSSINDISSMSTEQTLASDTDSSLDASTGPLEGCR

Work on `Nc1cnc(N2CCc3cc(S(=O)(=O)Nc4c(F)cc(Cl)cc4F)cc(N4CCCC4=O)c32)nc1` [TP-020n] yielded a % of control [1] of 84%.

`CCN(CC)CCCCNc1ncc2cc(-c3cc(OC)cc(OC)c3)c(NC(=O)NC(C)(C)C)nc2n1` showed a % of control [2] of 100%.

`CC[C@@H]1[C@H](F)C(=O)N[C@@H]1COc1nccc2cc(C(N)=O)c(OC)cc12` [ZIMLOVISERTIB] was tested, and the % of inhibition ([3]; at 0.01 µM) was 19.6%, the % of inhibition ([3]; at 0.04 µM) was -3.8% and the % of inhibition ([3]; at 0.2 µM) was -4.9%. The % of inhibition ([3]; at 1 µM) was -9.2% and the % of inhibition ([3]; at 5 µM) was 21.8%.

In the case of `CCC(=O)N1CCN(c2ccc(-n3c(=O)ccc4cnc5ccc(-c6cnc7ccccc7c6)cc5c43)cc2C(F)(F)F)CC1`, the % of control [4] is reported as 21%.

`CN(C)C/C=C/C(=O)Nc1ccc(C(=O)N2CCCC(Nc3ncc(Cl)c(-c4c[nH]c5ccccc45)n3)C2)cc1` (centres undefined) showed a % of control [5] of 99%.

Work on `O[C@H]1CC[C@H](Nc2ncc3nc(Nc4c(F)cc(F)cc4F)n([C@H]4CCOC4)c3n2)CC1` yielded a % of control [6] of 100%.

Molecule `Cc1cc([C@@H](C)Nc2ccccc2C(=O)O)c2nc(N3CCOCC3)cc(=O)n2c1` [AZD-6482] has a % of control [7] of 98%.

`N#Cc1cccc(-c2c[nH]c3ncnc(N4CCOCC4)c23)c1` showed a % of control [8] of 63% and a % of inhibition [9] of 6%.

Work on `CNC(=O)Nc1ccc(-c2nc(N3CC4CCC(C3)O4)c3cnn(C4CCC5(CC4)OCCO5)c3n2)cc1` yielded a % of control [10] of 84%.
